Data published in PMC7699199, “Identification and Validation of Carbonic Anhydrase II as the First Target of the Anti-Inflammatory Drug Actarit” (Biomolecules, 2020).
pIC50: −log10 of the molar value.

Biological target: T1, carbonic anhydrase II (CAII) (Homo sapiens, UniProt P00918)
T1 construct: gene CA2
Assay: Wilbur-Anderson electrometric CO2 hydration assay with recombinant human CAII
Assay type: biochemical

- pIC50: 6.37
SMILES: CC(=O)Nc1ccc(CC(=O)O)cc1 [actarit]
